Laboratory results reported in patent US20130197030A1, “Substituted 1,3-Dioxanes and There Uses” (Evolva Sa, priority 2007, published 2013).

Experiments:
Thromboxane synthase = target: T1, Thromboxane synthase (Homo sapiens, UniProt P24557); experiment: Human platelet thromboxane synthase assay; format: biochemical
T1 construct: Human Platelet Thromboxane Synthase Assay; from tissue; host or cells: human platelets
T1 sequence (P24557 1-533): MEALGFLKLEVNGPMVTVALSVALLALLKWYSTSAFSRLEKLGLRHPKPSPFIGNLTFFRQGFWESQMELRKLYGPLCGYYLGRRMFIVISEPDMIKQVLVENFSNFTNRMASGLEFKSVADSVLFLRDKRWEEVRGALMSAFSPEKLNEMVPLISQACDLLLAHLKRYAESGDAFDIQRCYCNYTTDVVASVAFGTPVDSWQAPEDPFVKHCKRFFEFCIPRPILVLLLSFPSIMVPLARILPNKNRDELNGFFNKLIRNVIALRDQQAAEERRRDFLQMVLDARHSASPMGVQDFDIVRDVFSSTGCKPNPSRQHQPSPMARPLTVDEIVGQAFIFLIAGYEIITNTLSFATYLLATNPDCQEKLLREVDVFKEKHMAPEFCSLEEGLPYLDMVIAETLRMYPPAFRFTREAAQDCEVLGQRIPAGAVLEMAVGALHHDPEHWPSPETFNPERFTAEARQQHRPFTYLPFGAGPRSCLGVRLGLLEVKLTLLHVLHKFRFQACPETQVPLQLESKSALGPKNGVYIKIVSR
Procedure: The compounds were tested for thromboxane synthase inhibition essentially as described by Borsch-Haubold A G, Pasquet S, Watson S P. (1998). Direct inhibition of cyclooxygenase-1 and -2 by the kinase inhibitors SB 203580 and PD 98059. […] 1. Imidazole derivatives. J Med. Chem. (10):1139-48 according to the following:
Pre-incubation time, temp: 15 minutes at 25° C. Incubation time, temp: 3 minutes at 25° C.
Incubation Buffer: 10 mM Tris-HCl, pH 7.4
Quantification Method: ETA quantification of TxB2

[1] = system: U-46619-induced platelet aggregation; experiment: TP receptor platelet aggregation, rabbit; format: cell-based, New Zealand Rabbit
Procedure: Thrombosis Research 33:277-288.
TP Receptor Platelet Aggregation—Rabbit:
New Zealand Rabbit (2.75±0.25 kg) platelet rich plasma
Assay: Inhibition of 1.5 μM U-46619-induced platelet aggregation Incubation Time, Temp: 5 minutes at 37° C. Incubation Buffer Trisodium Citrate (0.13 M)-treated platelet rich plasma
Time of Assessment: 5 minutes
Quantification Method Optical Density Change

[2] = system: arterial thrombosis in a mouse model; experiment: Arterial thrombosis in a mouse model (FeCl3, femoral artery); format: in vivo; settings: mice
Procedure: The solutions are diluted 3.3-fold in saline and 100 μl/25 g is injected. Thus, the above-mentioned doses of 100 and 300 mg/kg of compound correspond to final doses of 30 and 100 mg/kg.
During the experiments, a soluble salt of the drug is provided (e.g., potassium salt of compound C), diluted in saline. Of this formulation, 100 μl/25 g is injected i.v. in the tail vein (dose of 100 mg/kg).
Solutions are injected (100 μl/25 g body weight) i.v. in the tail vein over 2 min to obtain doses of each compound of 30 mg/kg and 100 mg/kg. Aspirin is given the same way at a dose of 200 mg/kg. Clopidogrel is administered by oral gavage at a dose of 20 mg/kg at 6-7 hours prior to the experiment. The animals assigned to each group are matched for body weight. Mice are typically 8-10 weeks old males and are in a 100% Swiss genetic background.
The flow in each image is expressed as a percentage of that at the contralateral side, and data are averaged for all 120 images to determine total flow. The same analysis is performed for 10 min intervals (which gives essentially the same information as the area under the curve). […] Flow before treatment is recorded as 100%, and that in occluded arteries as 0%. At the end of the experiment, blood is collected on 0.01M citrate buffer by heart puncture for determination of blood cell counts. Plasma is prepared by centrifugation and stored at −20° C. for determination of drug levels.
Statistical analysis for differences between two groups is performed by non-parametric Student t-test. Occlusion times >30 min were considered equal to 30 min for statistical analysis. Significance is set at p<0.05.

KKA^y mice = experiment: In vivo effect on serum glucose and other parameters in KKA^y mice
Procedure: 52 male KKA^y mice are obtained commercially (e.g., from Clea Japan) at an age of 6 weeks and put on a high fat diet upon arrival. Individual mice were housed in IVC Type II cages during both the acclimatization and the experimental phase. Both food (high fat diet) and water are supplied ad libitum.
1 animal per cage. […] Lights on at 06:00 a.m. Temperature: 21-25° C. Relative humidity target range: 55-60%.
Mice were randomized into treatment groups according to their 4-h fasting blood glucose.
4 hours after the last administration, non-fasting conditions.
Gamma irradiated high fat diet is commercially available (e.g., Research Diets, Inc. New Brunswick, N.J. (Product # D12266BI)).
Blood is collected into heparin containing glass capillaries which are subsequently centrifuged in a “Haematokrit 24” centrifuge (Hettich) at 15′200×g for 10 minutes at room temperature to obtain the hematocrit value.
The following serum parameters are determined on a COBAS INTEGRA 800 auto analyzer (Roche Diagnostics, Switzerland) using the reagents and protocols provided by the supplier.
All measurements are made on Day 14 of administration, except for the food intake and body weight measurements that are made on Day 12.

[3] = target: T2, Thromboxane receptor (TP) (Homo sapiens, UniProt P21731); experiment: TP receptor radioligand binding; settings: Human recombinant HEK-293 cells
T2 construct: expressed in transfected cells; host or cells: HEK-293 cells
T2 sequence (P21731 1-343): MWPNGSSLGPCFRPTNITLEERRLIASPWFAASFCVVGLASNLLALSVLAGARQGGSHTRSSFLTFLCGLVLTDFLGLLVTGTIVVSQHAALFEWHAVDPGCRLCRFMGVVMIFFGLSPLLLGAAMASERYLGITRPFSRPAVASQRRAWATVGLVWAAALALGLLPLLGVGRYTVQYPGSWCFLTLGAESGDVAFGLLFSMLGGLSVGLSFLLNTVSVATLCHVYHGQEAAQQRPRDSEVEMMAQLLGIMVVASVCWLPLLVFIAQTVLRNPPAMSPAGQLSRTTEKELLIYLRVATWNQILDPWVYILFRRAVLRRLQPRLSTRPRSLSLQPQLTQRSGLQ
Procedure: The compounds were tested on radioligand binding assays for thromboxane receptor binding essentially as described by Hedberg et al. (1988) J. Pharmacol. Exp. Ther. 245:786-792 and Saussy et al. (1986) J. Biol. Chem. 261: 3025-3029 according to the following:
TP Receptor Radioligand Binding Studies:
Human recombinant HEK-293 cells,
Incubation Time, Temp: 30 minutes at 25° C.
Incubation Buffer: 50 mM Tris-HCl, pH 7.4, 154 mM NaCl
Non-Specific Ligand: 1 μM SQ-29548
The data were transformed to semi-log and then analysed using non-linear regression to a four-parameter dose-response curve Y=Bottom+(Top−Bottom)/(1+10̂((LogEC50−X)*HillSlope)) using the log(agonist) vs. response—Variable slope function of GraphPad Prism software (http://graphpad.com/help/prism5/prism5help.html?usingnonlinear_regression_step_by_s.htm).

[4] = 14-day oral gavage BID, dose not given
[5] = 53 mg/kg BID oral gavage 14 days, high fat diet, Day 14

Q: Which “Inhibition of thromboxane synthase (in words)” value (Thromboxane synthase) does the source give for Cc1ccc2nc(Cl)c([C@H]3OC[C@@H](C/C=C\CCC(=O)O)[C@@H](c4ccccc4O)O3)cc2c1 (racemic) [Compound 13, (Z)-6-(2-(2-Chloro-6-methyl-quinolin-3-yl)-4-(2-hydroxyphenyl)-1,3-dioxan-5-yl)hex-4-enoic acid] here?
A: The value was “potent inhibitors of thromboxane synthase”.

Q: What about the inhibition at 5 µM (Thromboxane synthase; at 5 μM) of the same molecule?
A: The inhibition at 5 µM was 85%.

Q: What about the “Inhibition of platelet aggregation (in words)” value [1] of the same molecule?
A: The value was “potent inhibitors of platelet aggregation”.

Q: What about the inhibition at 10 µM ([1]; Oryctolagus cuniculus, at 10 μM, 1.5 μM U-46619, platelet rich plasma) of the same molecule?
A: The inhibition at 10 µM was 100%.

Q: What about the Occlusion time ([2]; dose not given) of the same molecule?
A: The Occlusion time was “prolongs the occlusion time”.

Q: And the Total blood flow ([2]; dose not given)?
A: The Total blood flow was “improves total blood flow”.

Q: And the FFA (KKA^y mice; [4])?
A: The FFA was “decreases the FFA”.

Q: What about the HbA1c levels (KKA^y mice; [4]) of the same molecule?
A: Its HbA1c levels is “decreased”.

Q: And the Heart weight (KKA^y mice; [4])?
A: Its Heart weight is “has no effect on heart weight”.

Q: What about the Body weight (KKA^y mice; oral gavage BID, dose not given) of the same molecule?
A: Its Body weight is “do not alter body weight”.

Q: What does the source list for O=C(O)CC/C=C\C[C@@H]1CO[C@H](c2coc3ccc(Cl)cc3c2=O)O[C@@H]1c1ccccc1O (single isomer, unassigned) [Compound 3-1]?
A: Binding to the TP receptor (comparison of enantiomers) [3]: binds with higher affinity than enantiomer 3-2; IC50 ([3]; 5 nM [3H] SQ-29548): 88.9 nM; Ki ([3]; 5 nM [3H] SQ-29548): 58 nM; inhibition at 1 µM ([3]; at 1 μM, 5 nM [3H] SQ-29548): 99%; IC50 (Thromboxane synthase): 365 nM; inhibition at 1 µM (Thromboxane synthase; at 1 μM): 67%

Q: Which results are given for O=C(O)CC/C=C\C[C@H]1CO[C@@H](c2coc3ccc(Cl)cc3c2=O)O[C@H]1c1ccccc1O (single isomer, unassigned) [Compound 3-2]?
A: IC50 ([3]; 5 nM [3H] SQ-29548): 1680 nM; Ki ([3]; 5 nM [3H] SQ-29548): 1100 nM; inhibition at 10 µM ([3]; 5 nM [3H] SQ-29548): 93%; IC50 (Thromboxane synthase): > 100000 nM; inhibition at 100 µM (Thromboxane synthase; at 100 μM): 37%

Q: With CC(=O)Oc1ccccc1C(=O)O [Aspirin] as the molecule, how does the Occlusion time ([2]; 200 mg/kg i.v.) read?
A: Its Occlusion time is “has no effect on the occlusion time”.

Q: What about the Total blood flow ([2]; 200 mg/kg i.v.) of the same molecule?
A: The Total blood flow was “has no significant effect on the total blood flow”.

Q: COC(=O)[C@H](c1ccccc1Cl)N1CCc2sccc2C1 [Clopidogrel] was tested. Which Total blood flow ([2]; 20 mg/kg oral gavage 6-7 hours prior) did it give?
A: The Total blood flow was “significantly improved total blood flow”.

Q: With O=C(O)CC/C=C\C[C@@H]1CO[C@H](c2ccccc2Cl)O[C@@H]1c1ccccc1O [Compound C, (Z)-6-((2S,4S,5R)-2-(2-chlorophenyl)-4-(2-hydroxyphenyl)-1,3-dioxan-5-yl)hex-4-enoic acid, reference compound] as the molecule, how does the Occlusion time ([2]; 30 mg/kg in vehicle i.v.) read?
A: The Occlusion time was “slightly prolongs the occlusion time as compared to aspirin (p=0.024), but has no effect as compared to vehicle”.

Q: And the Total blood flow ([2]; 30 mg/kg in vehicle i.v.)?
A: Its Total blood flow is “has no effect on total blood flow”.

Q: What about the FFA (KKA^y mice; [5]) of the same molecule?
A: Its FFA is “decreases the FFA”.

Q: And the HbA1C (KKA^y mice; [5])?
A: The HbA1C was “decreased”.

Q: And the Heart weight (KKA^y mice; [5])?
A: Its Heart weight is “has no effect on heart weight”.

Q: What about the “Serum Glucose” value (KKA^y mice; [5]) of the same molecule?
A: Its value is “decreased”.

Q: And the “Body weight” value (KKA^y mice; 53 mg/kg BID oral gavage, high fat diet, Day 12)?
A: The value was “do not alter body weight”.

Q: With COc1ccccc1[C@@H]1O[C@H](c2ccccc2Cl)OC[C@@H]1C/C=C\CCC(=O)O [Compound E, (Z)-6-((2R,4R,5S)-2-(2-chlorophenyl)-4-(2-methoxyphenyl)-1,3-dioxan-5-yl)hex-4-enoic acid, reference compound] as the molecule, how does the inhibition at 10 µM ([3]; 5 nM [3H] SQ-29548) read?
A: Its inhibition at 10 µM is 85%.

Q: And the inhibition at 30 µM (Thromboxane synthase; at 30 μM)?
A: The inhibition at 30 µM was 52%.

Q: COc1ccccc1[C@@H]1O[C@H](c2ccccc2Cl)OC[C@@H]1C/C=C\CCC(=O)O [Compound F, (Z)-6-((2R,4R,5S)-2-(2-chlorophenyl)-4-(2-methoxyphenyl)-1,3-dioxan-5-yl)hex-4-enoic acid, reference compound] was tested. Which IC50 ([3]; 5 nM [3H] SQ-29548) did it give?
A: Its IC50 is 23.4 nM.

Q: What about the Ki ([3]; 5 nM [3H] SQ-29548) of the same molecule?
A: Its Ki is 15.3 nM.

Q: What about the inhibition at 0.3 µM ([3]; at 0.3 μM, 5 nM [3H] SQ-29548) of the same molecule?
A: Its inhibition at 0.3 µM is 96%.

Q: What about the IC50 (Thromboxane synthase) of the same molecule?
A: Its IC50 is 20400 nM.

Q: What about the “Thromboxane synthase Human platelet Inhibition (%)” value (Thromboxane synthase; at 30 μM) of the same molecule?
A: The value was 62 @ 30 μM %.

Q: Which Heart weight (KKA^y mice; 5 mg/kg BID oral gavage 14 days, high fat diet, Day 14) does the source give for CN(CCOc1ccc(CC2SC(=O)NC2=O)cc1)c1ccccn1 (stereo not shown) [Rosiglitazone, reference compound] here?
A: The Heart weight was 226.2 ± 6.9 mg.

Q: And the Heart weight (KKA^y mice; 5 mg/kg BID oral gavage 14 days, high fat diet, Day 14, listed as rosiglitazone)?
A: The Heart weight was “increased”.
